Test results taken from US20080280891A1, “Anti-cancer agents and uses thereof” (Locus Pharmaceuticals, Inc., priority 2006, published 2008).

Experiments:
Format in all cases: cell-based
[1] = tested on: Jurkat T-cell leukemic cells; assay: Cell cycle assay (Example 163), G2/M block in Jurkat cells; details: 24 h, flow cytometry (PI), Table 2; for activation at 0.1 µM: Homo sapiens, Jurkat
Procedure: (§1) MCF-7 breast cancer cells and Jurkat T-cell leukemic cells were grown (and maintained) in EMEM and RPMI media, respectively, containing 10% fetal calf serum.
Test agents were added a concentration of 0.1 μM. Twenty-fours after test agent addition, cells were analyzed for cell cycle status as described below.
(§2) Cell cycle status was analyzed by flow cytometry. Briefly, cells were collected and washed with FACs buffer (Pharmingen) and resuspended and fixed in 1 mL of 80% ethanol for 1 hr. Cells were washed with FACs buffer and resuspended in propidium iodide(PI)/RNase staining buffer (Pharmingen). PI is a fluorescent dye that labels nucleic acids such as DNA. The fluorescence within a cell (in the presence of PI) is proportional to the amount of DNA within a cell. The cell content of DNA is an indices of status in the cell cycle. […] Cells in the S phase have DNA content that lies between these extremes.
(§3) For testing of cell cycle effects of test agents the percentage of cells within the G1 and G2/M phase were measured.

Hela cells = assay: Cell viability assay (WST-1), Hela cells; details: WST-1, 48-72 hrs, 0.5% fetal calf serum
Procedure: (§4) Jurkat and Hela cells were cultured in RPMI and EMEM media, respectively, containing 0.5% fetal calf serum. Cells were plated in a volume of 100 μL in a 96 well format. Test compounds were included in the culture media at concentrations ranging from 1 nM to 10 μM for a period of 48-72 hrs. Cell viability was determined using the WST-1 calorimetric mitochondrial reduction assay. Briefly, 10 μL of WST-1 reagent was included in the culture well for a period of 1 to 4 hrs. The WST-1 reaction was read on a multiwell spectrophotometer as the difference in the absorbance between 450 nm and 600 nm (baseline). Absorbance was proportional to the number of living cells in the culture well. Concentration response curves and IC50 values were calculated using GraphPAD Prism graphing and curve fitting program.

[2] = tested on: MCF-7 breast cancer cells; assay: Cell cycle assay (Example 163), G2/M block in MCF-7 cells; details: flow cytometry (PI), Table 2; for activation at 1 µM: Homo sapiens, MCF7, 24 h
Procedure: as §1
Cells were allowed to adhere for 24 hrs. After adherence, cell culture media was changed to that containing 0.5% FCS. Thirty minutes post-media change, test compounds were added at a concentration of 1 μM. Twenty-fours after test agent addition, cells were analyzed for cell cycle status as described below.
as §2, §3

Jurkat cells = assay: Cell viability assay (WST-1), Jurkat cells; details: Homo sapiens, WST-1, 48-72 hrs, 0.5% fetal calf serum
Procedure: as §4

[3] = tested on: NCI-H522 non small cell lung cancer cells; assay: Cell cycle assay (Example 164), G2/M block in NCI-H522 cells; details: Homo sapiens; for activation at 0.1 µM: 24 h, flow cytometry (PI)
[4] = tested on: MCF-7 breast cancer cells; assay: Cell cycle assay (Example 164), G2/M block in MCF-7 cells; details: for activation at 0.1 µM / IC50: Homo sapiens, MCF7; for activation at 0.1 µM / MCF-7 G2/M Block 1 μM: 24 h, flow cytometry (PI); for activation at 0.1 µM: Table 4; for IC50: MCF-7, footnotes * and ** of Table 4, read-out: IC50 (footnote mark in column MCF-7 G2/M Block); for MCF-7 G2/M Block 1 μM: Table 3

IC50 (Hela cells; Homo sapiens, HeLa) [nM] | IC50 (Jurkat cells) [nM] | SMILES | activation at 0.1 µM [1] [%] | activation at 1 µM [2] [%] | also measured
1000 to 30000 |  | Oc1cc(-c2cccc3[nH]ccc23)nc(Nc2cccnc2)n1 [6-(1H-Indol-4-yl)-2-(pyridin-3-ylamino)-pyrimidin-4-ol] | ≥ 50 |  | 
1000 to 30000 | 1000 to 30000 | COc1ccc(Cc2c(O)cc(Nc3cccnc3)cc2-c2cccc3sccc23)cc1 [3-benzo[b]thiophen-4-yl-2-(4-methoxy-benzyl)-5-(pyridin-3-ylamino)-phenol] | ≥ 50 | < 50 | 
1000 to 30000 | 1 to 999 | Nc1ccc(C(=O)c2cc(O)cc(-c3cccc4[nH]ccc34)c2)cn1 [(6-Amino-pyridin-3-yl)-[3-hydroxy-5-(1H-indol-4-yl)-phenyl]-methanone] | < 50 | ≥ 50 | 
1000 to 30000 |  | COc1cc(-c2cccc3[nH]ccc23)nc(Nc2cccnc2)n1 [[4-(1H-Indol-4-yl)-6-methoxy-pyrimidin-2-yl]-pyridin-3-ylamine] | < 50 | < 50 | 
> 3000 | 1000 to 30000 | Cn1ccc2cccc(-c3cc(O)cc(Nc4cccnc4)c3)c21 [3-(1-Methyl-1H-indol-7-yl)-5-(pyridin-3-ylamino)-phenol] | < 50 |  | 
1 to 999 | 1000 to 30000 | O=C(c1ccc(O)nc1)c1cc(O)cc(-c2cccc3[nH]ccc23)c1 [[3-Hydroxy-5-(1H-indol-4-yl)-phenyl]-(6-hydroxypyridin-3-yl)-methanone] | < 50 |  | 
1 to 999 |  | Oc1cc(Nc2ccccn2)cc(-c2cccc3[nH]ccc23)c1 [3-(1H-Indol-4-yl)-5-(pyridin-2-ylamino)-phenol] | ≥ 50 | < 50 | 
1000 to 30000 |  | Oc1cc(Nc2cccnc2)cc(-c2cccc(-c3ccccc3)c2)c1 [5-(Pyridin-3-ylamino)-[1,1′;3′,1″]terphenyl-3-ol] |  |  | 
1000 to 30000 |  | Oc1cc(Nc2cccnc2)cc(-c2cccc3c2CCC3)c1 [3-Indan-4-yl-5-(pyridin-3-ylamino)-phenol] | < 50 | < 50 | 
> 3000 | 1000 to 30000 | Oc1ccc(C(O)c2cccnc2)cc1C12CC3CC(CC(C3)C1)C2 (centres unmarked) [2-Adamantan-1-yl-4-(hydroxy-pyridin-3-yl-methyl)-phenol] | < 50 |  | 
1000 to 30000 |  | N#Cc1ccc2c(ccn2-c2cc(O)cc(Nc3cccnc3)c2)c1 [1-[3-Hydroxy-5-(pyridin-3-ylamino)-phenyl]-1H-indole-5-carbonitrile] | ≥ 50 | < 50 | 
1000 to 30000 |  | ON=C(c1cccnc1)c1cc(O)cc(-c2cccc3[nH]ccc23)c1 [[3-Hydroxy-5-(1H-indol-4-yl)-phenyl]-pyridin-3-yl-methanone oxime] | < 50 | < 50 | 
1000 to 30000 |  | Oc1cc(Nc2cccnc2)cc(-c2cccc3cccnc23)c1 [3-(Pyridin-3-ylamino)-5-quinolin-8-yl-phenol] | < 50 | < 50 | 
1000 to 30000 | 1 to 999 | Cc1ccc(C(=O)c2cc(O)cc(-c3cccc4[nH]ccc34)c2)cn1 [[3-Hydroxy-5-(1H-indol-4-yl)-phenyl]-(6-methyl-pyridin-3-yl)-methanone] | < 50 |  | 
1000 to 30000 |  | Oc1cc(Nc2cccnc2)cc(-c2ccc3c(c2)CCC3)c1 [3-Indan-5-yl-5-(pyridin-3-ylamino)-phenol] |  |  | 
1 to 999 | 1000 to 30000 | CC(O)(c1cccnc1)c1cc(O)cc(-c2cccc3[nH]ccc23)c1 (centres unmarked) [3-(1-Hydroxy-1-pyridin-3-yl-ethyl)-5-(1H-indol-4-yl)-phenol] | < 50 |  | 

IC50 (Hela cells; Homo sapiens, HeLa) [nM] | IC50 (Jurkat cells) [nM] | SMILES | activation at 0.1 µM [1] [%] | activation at 1 µM [2] [%] | also measured
1 to 999 |  | O=[N+]([O-])c1ccc2ccn(-c3cc(O)cc(Nc4cccnc4)c3)c2c1 [3-(6-Nitro-indol-1-yl)-5-(pyridin-3-ylamino)-phenol] | ≥ 50 |  | 
 |  | [O-][n+]1cccc(Nc2cc(O)cc(-c3cccc4[nH]ccc34)c2)c1 [3-(1H-Indol-4-yl)-5-(1-oxy-pyridin-3-ylamino)-phenol] |  |  | MCF-7 G2/M Block 1 μM ([2]; 24 h): Y (Y indicates a 50% or greater increase in the number of cells in the G2/M phase, as compared to control); Jurkat G2/M Block 0.1 μM [1]: Y (Y indicates a 50% or greater increase in the number of cells in the G2/M phase, as compared to control); IC50 (Hela cells): 1 to 999 nM
 |  | COC(=O)Nc1cc(C(=O)c2ccnc(OC)c2)cc(-c2cccc3occc23)c1 [[3-Benzofuran-4-yl-5-(2-methoxy-pyridine-4-carbonyl)-phenyl]-carbamic acid methyl ester] |  |  | activation at 0.1 µM ([3]; Table 4): < 50%; IC50 ([3]; H522, footnotes * and ** of Table 4, read-out: IC50 (footnote mark in H522 G2/M Block)): 500 to 5000 nM; activation at 0.1 µM [4]: < 50%; IC50 [4]: 500 to 5000 nM
> 3000 | 1000 to 30000 | Oc1cc(Nc2cccnc2)cc(-c2ccc3c(c2)OCO3)c1 [3-Benzo[1,3]dioxol-5-yl-5-(pyridin-3-ylamino)-phenol] | < 50 |  | 
1000 to 30000 |  | O=C(c1cccnc1)c1cc(O)cc(-c2cccc3[nH]cc(C(=O)C(F)(F)F)c23)c1 [2,2,2-Trifluoro-1-{4-[3-hydroxy-5-(pyridine-3-carbonyl)-phenyl]-1H-indol-3-yl}-ethanone] | < 50 | < 50 | 
1 to 999 | 1000 to 30000 | Oc1cc(Nc2ccc(O)nc2)cc(-c2cccc3[nH]ccc23)c1 [5-[3-Hydroxy-5-(1H-indol-4-yl)-phenylamino]-pyridin-2-ol] | < 50 |  | 
1000 to 30000 | 1000 to 30000 | COc1ccc(COc2cc(Nc3cccnc3)cc(-c3cccc4sccc34)c2)cc1 [[3-Benzo[b]thiophen-4-yl-5-(4-methoxy-benzyloxy)-phenyl]-pyridin-3-yl-amine] |  |  | 
 |  | COC(=O)Nc1cc(C(=O)c2ccnc(C)c2)cc(-c2cccc3[nH]ccc23)c1 [[3-(1H-Indol-4-yl)-5-(2-methyl-pyridine-4-carbonyl)-phenyl]-carbamic acid methyl ester] |  |  | activation at 0.1 µM ([3]; Table 4): ≥ 50%; activation at 0.1 µM [4]: < 50%
1 to 999 |  | O=C(c1ccc(Cl)nc1)c1cc(O)cc(-c2cccc3[nH]ccc23)c1 [(6-Chloro-pyridin-3-yl)-[3-hydroxy-5-(1H-indol-4-yl)-phenyl]-methanone] | ≥ 50 | < 50 | 
 |  | COC(=O)Nc1cc(-c2ccc(OC)nc2)cc(-c2cccc3[nH]ccc23)c1 [[3-(1H-Indol-4-yl)-5-(6-methoxy-pyridin-3-yl)-phenyl]-carbamic acid methyl ester] |  |  | activation at 0.1 µM ([3]; Table 4): ≥ 50%; activation at 0.1 µM [4]: < 50%; IC50 [4]: 100 to 1000 nM
 |  | COC(=O)Nc1cc(C(=O)c2ccnc(N3CCOCC3)c2)cc(-c2cccc3[nH]ccc23)c1 [[3-(1H-Indol-4-yl)-5-(2-morpholin-4-yl-pyridine-4-carbonyl)-phenyl]-carbamic acid methyl ester] |  |  | activation at 0.1 µM ([3]; Table 4): ≥ 50%; activation at 0.1 µM [4]: ≥ 50%
 |  | Nc1ccc(-c2cccc3[nH]ccc23)cc1C(=O)c1cccnc1 [[2-Amino-5-(1H-indol-4-yl)-phenyl]-pyridin-3-yl-methanone] |  |  | activation at 0.1 µM ([3]; Table 3): ≥ 50%; MCF-7 G2/M Block 1 μM [4]: Y (Y indicates a 50% or greater increase in the number of cells in the G2/M phase, as compared to control)
 |  | CS(=O)(=O)Nc1cc(C(=O)c2ccnc(N3CCSCC3)c2)cc(-c2cccc3[nH]ccc23)c1 [N-[3-(1H-Indol-4-yl)-5-(2-thiomorpholin-4-yl-pyridine-4-carbonyl)-phenyl]-methanesulfonamide] |  |  | activation at 0.1 µM ([3]; Table 4): ≥ 50%; activation at 0.1 µM [4]: ≥ 50%
 |  | N#Cc1ccc(Nc2cc(O)cc(-c3cccc4[nH]ccc34)c2)cc1 [4-[3-Hydroxy-5-(1H-indol-4-yl)-phenylamino]-benzonitrile] |  |  | activation at 0.1 µM ([3]; Table 3): ≥ 50%; MCF-7 G2/M Block 1 μM [4]: N (N indicates a less than 50% increase at this dose)
 |  | COc1cc(C(=O)c2cc(C(N)=O)cc(-c3cccc4[nH]ccc34)c2)ccn1 [3-(1H-Indol-4-yl)-5-(2-methoxy-pyridine-4-carbonyl)-benzamide] |  |  | activation at 0.1 µM ([3]; Table 4): ≥ 50%; activation at 0.1 µM [4]: ≥ 50%
